Tested on: NOMO1
Assay: cell viability relative to DMSO control; higher = less cytotoxic
Conditions: 48 h
In short: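 In 1536-well plates, 5 μl of leukemia cells were seeded per well: 500 cells/well for NOMO1 or SEM and 1000 cells/well for P12-Ichikawa. Each line had first been adapted for at least four passages in each medium. Library compounds in DMSO were pin-dosed at 11 threefold concentrations between 47 μM and 0.79 nM, and CellTiter-Glo One luminescence was read after 48 h at 37°C. Viability is a per-plate percentage relative to DMSO wells, with cell-free wells as background.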

[1] = HPLM + 10% dialyzed FBS, 0.000781 µM
[2] = HPLM + 10% dialyzed FBS, 0.00234 µM
[3] = HPLM + 10% dialyzed FBS, 0.00702 µM
[4] = HPLM + 10% dialyzed FBS, 0.0211 µM
[5] = HPLM + 10% dialyzed FBS, 0.0632 µM
[6] = HPLM + 10% dialyzed FBS, 0.19 µM
[7] = HPLM + 10% dialyzed FBS, 0.569 µM
[8] = HPLM + 10% dialyzed FBS, 1.71 µM
[9] = HPLM + 10% dialyzed FBS, 5.12 µM
[10] = HPLM + 10% dialyzed FBS, 15.4 µM
[11] = HPLM + 10% dialyzed FBS, 46.1 µM
[12] = RPMI 5 mM glucose + 10% FBS, 0.000781 µM
[13] = RPMI 5 mM glucose + 10% FBS, 0.00234 µM
[14] = RPMI 5 mM glucose + 10% FBS, 0.00702 µM
[15] = RPMI 5 mM glucose + 10% FBS, 0.0211 µM
[16] = RPMI 5 mM glucose + 10% FBS, 0.0632 µM
[17] = RPMI 5 mM glucose + 10% FBS, 0.19 µM
[18] = RPMI 5 mM glucose + 10% FBS, 0.569 µM
[19] = RPMI 5 mM glucose + 10% FBS, 1.71 µM
[20] = RPMI 5 mM glucose + 10% FBS, 5.12 µM
[21] = RPMI 5 mM glucose + 10% FBS, 15.4 µM
[22] = RPMI 5 mM glucose + 10% FBS, 46.1 µM
[23] = RPMI 5 mM glucose + 10% dialyzed FBS, 0.000781 µM
[24] = RPMI 5 mM glucose + 10% dialyzed FBS, 0.00234 µM
[25] = RPMI 5 mM glucose + 10% dialyzed FBS, 0.00702 µM
[26] = RPMI 5 mM glucose + 10% dialyzed FBS, 0.0211 µM
[27] = RPMI 5 mM glucose + 10% dialyzed FBS, 0.0632 µM
[28] = RPMI 5 mM glucose + 10% dialyzed FBS, 0.19 µM
[29] = RPMI 5 mM glucose + 10% dialyzed FBS, 0.569 µM
[30] = RPMI 5 mM glucose + 10% dialyzed FBS, 1.71 µM
[31] = RPMI 5 mM glucose + 10% dialyzed FBS, 5.12 µM
[32] = RPMI 5 mM glucose + 10% dialyzed FBS, 15.4 µM
[33] = RPMI 5 mM glucose + 10% dialyzed FBS, 46.1 µM

SMILES	cell viability [1] [%]	cell viability [2] [%]	cell viability [3] [%]	cell viability [4] [%]	cell viability [5] [%]	cell viability [6] [%]	cell viability [7] [%]	cell viability [8] [%]	cell viability [9] [%]	cell viability [10] [%]	cell viability [11] [%]	cell viability [12] [%]	cell viability [13] [%]	cell viability [14] [%]	cell viability [15] [%]	cell viability [16] [%]	cell viability [17] [%]	cell viability [18] [%]	cell viability [19] [%]	cell viability [20] [%]	cell viability [21] [%]	cell viability [22] [%]	cell viability [23] [%]	cell viability [24] [%]	cell viability [25] [%]	cell viability [26] [%]	cell viability [27] [%]	cell viability [28] [%]	cell viability [29] [%]	cell viability [30] [%]	cell viability [31] [%]	cell viability [32] [%]	cell viability [33] [%]
CC(C)c1c(C(=O)Nc2ccccc2)c(-c2ccccc2)c(-c2ccc(F)cc2)n1CC[C@@H](O)C[C@@H](O)CC(=O)[O-]	109	108	118	112	94.4	97.4	100	97.2	88.4	75.6	52.4	96.4	91.3	94.6	90.8	88.2	116	97.6	80.1	83.7	83.5	61.5	90.4	100	90.9	89.6	102	103	92.2	77.9	73.9	67.3	48.4
Oc1ccc2ccccc2c1SSc1c(O)ccc2ccccc12	94.5	101	101	126	124	135	111	125	114	92.8	103	98.9	94.4	111	119	108	109	110	107	96.9	104	96.4	85.3	93.9	117	116	105	105	109	105	96.3	100	78.9
CCN(CC)CCCC(C)Nc1nc(C)cc(Nc2ccc3nc(C)cc(N)c3c2)n1 (stereo not given)	79.6	105	124	125	108	125	119	129	102	111	114	96.3	111	110	113	123	116	124	110	120	108	111	106	108	114	111	122	115	120	107	115	94.6	103
CC(C)(Sc1ccc(CCN(CCCCC2CCCCC2)C(=O)NC2CCCCC2)cc1)C(=O)O	107	120	101	111	109	109	118	108	101	114	101	102	120	113	110	120	120	107	118	98	95.6	118	106	102	102	114	113	104	112	108	93.7	114	98.8
CCOC(=O)[C@H]1O[C@@H]1C(=O)N[C@@H](CC(C)C)C(=O)NCCC(C)C	–	–	–	–	–	–	–	–	–	–	–	114	107	107	117	123	116	114	104	102	92.2	12.6	114	112	121	126	106	121	113	109	102	112	15.1
N#C/C(=C1/Nc2ccccc2S1)c1ccnc(OCc2ccc(CN3CCOCC3)cc2)n1	104	120	97.1	127	122	122	107	84.9	86	25.2	27.5	104	109	105	117	113	115	109	101	103	13.4	13.7	112	105	96	120	109	114	111	99	86	18	14.6
Cc1c(C(=O)c2cccc3ccccc23)c2cccc3c2n1[C@H](CN1CCOCC1)CO3	104	100	94.2	101	99.9	91	89.5	86.9	97.9	86.1	5.74	91.4	83.8	87.4	87.8	96.7	94.4	86.4	91	88.7	81.4	4.88	84.2	90	86.3	86.9	95.8	85.5	85.4	88.1	87.5	77.7	5.16

Source: the supplement of paper PMC11451515
